Here are results for four compounds from paper PMC12736008, “New Dimethylpyridine-3-Carboxamide Derivatives as MMP-13 Inhibitors with Anticancer Activity” (Molecules, 2025).

For one series, the target named is T1, HSA/Dansyl-L-Gly (Homo sapiens, UniProt P02768).
T1 construct: purchased Sigma-Aldrich
The series is described as follows: Marker displacement from HSA/Dansyl-L-Gly complex (Sudlow site I). The series is classed as binding. Conditions: room temperature. From the text: The human serum albumin (HSA) has two main drug-binding sites, known as Sudlow site I and Sudlow site II, located in subdomains IIA and IIIA of the albumin structure, respectively. […] In addition to these main sites, HSA has the capacity to bind ligands in other regions, including histidine residues, the N-terminus of the molecule, and metal binding sites. However, it is most common for drugs to bind to Sudlow I and Sudlow II. In order to study binding to a specific site in the protein, fluorescent markers, Dansyl-L-Gly and Dansyl-L-Phe, were used. The Dansyl-L-Gly interacts with Sudllow I, while the Dansyl-L-Phe prefers Sudllow II [41, 42]. The tested compounds were added in portions to the solution that contained the HSA/marker complex, and the fluorescence spectrum was recorded (Figure 11 and Figure 12). The percentage of compound exchange in the albumin pocket was calculated using Equation (6):(6) displacement % =F^0 −F /F^0 where F^0 is the maximum fluorescence intensity of HSA/Dansyl-L-Gly complex, and F is the maximum fluorescence intensity after a quencher addition. The calculated data were collected in Table 6. It was observed that only compound 3b displaces from the Dansyl-L-Gly binding site, as indicated by a decrease in fluorescence intensity with increasing concentration of this derivative, but only to approximately 8%. […] The band intensity increases slightly, which may be due to the dilution of the solution. […] This, in turn, results in a reduction in the number of collisions and reabsorptions, thereby enhancing the efficiency of fluorescence emission. […]
Solutions of Dansyl-L-Phe (Chem-Norm Biotech, Wuhan, China) and Dansyl-L-Gly (Sigma-Aldrich, Tokyo, Japan) were prepared by dissolving them separately in ethanol to a final concentration of 1·10^−3 mol/dm^3. […] Spectra were recorded at room temperature using a Cary Eclipse 500 spectrophotometer (Agilent, Santa Clara, CA, USA) with an excitation wavelength of 350 nm, and an emission range of 410–670 nm and the PMT voltages were (V) 700 and 650 for Dansyl-L-Gly and Dansyl-L-Phe, respectively. […]

The next series has as its target T2, HSA/Dansyl-L-Phe (Homo sapiens, UniProt P02768).
T2 construct: purchased Sigma-Aldrich
The series is described as follows: Marker displacement from HSA/Dansyl-L-Phe complex (Sudlow site II). The class given is binding. The settings on record: room temperature. An excerpt: The human serum albumin (HSA) has two main drug-binding sites, known as Sudlow site I and Sudlow site II, located in subdomains IIA and IIIA of the albumin structure, respectively. […] In addition to these main sites, HSA has the capacity to bind ligands in other regions, including histidine residues, the N-terminus of the molecule, and metal binding sites. However, it is most common for drugs to bind to Sudlow I and Sudlow II. In order to study binding to a specific site in the protein, fluorescent markers, Dansyl-L-Gly and Dansyl-L-Phe, were used. The Dansyl-L-Gly interacts with Sudllow I, while the Dansyl-L-Phe prefers Sudllow II [41, 42]. The tested compounds were added in portions to the solution that contained the HSA/marker complex, and the fluorescence spectrum was recorded (Figure 11 and Figure 12). The percentage of compound exchange in the albumin pocket was calculated using Equation (6):(6) displacement % =F^0 −F /F^0 where F^0 is the maximum fluorescence intensity of HSA/Dansyl-L-Gly complex, and F is the maximum fluorescence intensity after a quencher addition. The calculated data were collected in Table 6. It was observed that only compound 3b displaces from the Dansyl-L-Gly binding site, as indicated by a decrease in fluorescence intensity with increasing concentration of this derivative, but only to approximately 8%. […] The band intensity increases slightly, which may be due to the dilution of the solution. The dilution of the sample leads to an increase in the average distance between molecules. This, in turn, results in a reduction in the number of collisions and reabsorptions, thereby enhancing the efficiency of fluorescence emission. Nevertheless, the binding site for Dansyl-L-Phe was displaced by all of the tested derivatives.
Solutions of Dansyl-L-Phe (Chem-Norm Biotech, Wuhan, China) and Dansyl-L-Gly (Sigma-Aldrich, Tokyo, Japan) were prepared by dissolving them separately in ethanol to a final concentration of 1·10^−3 mol/dm^3. The HSA solution was prepared in the same way as for titration binding measurements. Spectra were recorded at room temperature using a Cary Eclipse 500 spectrophotometer (Agilent, Santa Clara, CA, USA) with an excitation wavelength of 350 nm, and an emission range of 410–670 nm and the PMT voltages were (V) 700 and 650 for Dansyl-L-Gly and Dansyl-L-Phe, respectively. The complexes were prepared by mixing the HSA solution with the dansylated markers, and then adding the solution of the studied compounds from a ratio of 0 to 11.0 molar at the same increments, using the same protocol as in the spectroscopy studies.

A further series concerns NHDF cells. The series is described as follows: MTT assay, NHDF. The series is classed as cell-based, human. Conditions: 24 h, 0.004 mM to 0.5 mM. From the text:
As mentioned earlier, MMP-13 is overexpressed and functionally significant in various cancers, including melanoma and colorectal carcinoma. For instance, high MMP-13 levels have been correlated with metastasis and poor survival in melanoma patients. In colorectal cancer, elevated MMP-13 activity has been observed in tumors compared to normal mucosa, and its expression is associated with a worse prognosis. Based on computational studies, four out of the eleven designed compounds showing the most promising predicted activity against MMP-13 were selected for biological evaluation. For the MTT assay, NHDF cells were used as the healthy reference cell line, while A375 (melanoma) and HT-29 (colorectal adenocarcinoma cancer) cell lines were chosen as cancer models.
Experiments were conducted using two cancer cell lines and, as a control, a normal human dermal fibroblasts (NHDF; ATCC PCS-201-012). The A375 cell line (human melanoma, ATCC CRL-1619), and HT-29 cell line (human colorectal adenocarcinoma, ATCC HTB-38) were cultured in DMEM (Dulbecco’s Modified Eagle Medium, Institute of Immunology and Experimental Therapy (IITD), Wrocław, Poland) supplemented with 1% antibiotics (10 U/mL penicillin and 10 µg/mL streptomycin, Sigma-Aldrich, St Louis, MO, USA), 1% glutamine (Sigma-Aldrich, St Louis, MO, USA) and 10% fetal bovine serum (FBS, Gibco, Grand Island, NY, USA). For NHDF cultures, α-MEM (α-Minimum Essentials Medium, Institute of Immunology and Experimental Therapy (IITD), Poland) was used with the same supplement combination as for the cancer cell lines. All cells were maintained in a humidified incubator (INCO 105, Memmert GmbH, Schwabach, Germany) at 37 °C with 5% CO2 and 95% humidity. Cells were passaged routinely by trypsinization (twice a week). For the MTT (3-(4,5-simethylthiazol-2,5-diphenyltetrazolinum bromide), Sigma, St. Louis, MO, USA) assay, cells were used after 2–4 passages, when they reached approximately 80% confluence.
All tested compounds were dissolved in DMSO to obtain stock solutions with a final concentration of 50 mM (3a, 3b, 3e), 40 mM (3f, 3g, 3i, 3j), and 35 mM (3h, 3k). […] In the next step, 10 µL of each stock solution was added to 990 µL of supplemented medium.
The MTT assay was performed in 96-well plates, with a seeding density of 1 × 10^4 cells per well. All cell lines were incubated for 24 h in their respective media: α-MEM for (NHDF cells) and DMEM for (A375 and HT-29) cells. After incubation, the medium was removed and replaced with fresh medium containing the tested compounds at concentrations ranging from 0.004 mM to 0.5 mM. […] Absorbance was measured spectrophotometrically at a wavelength of 570 nm using a BioTek SYNERGY H1 microplate reader (Agilent, Santa Clara, CA, USA).
On the technique in general: Formazan colour is commonly taken as a measure of viable cells.

T2 sequence (P02768 25-609): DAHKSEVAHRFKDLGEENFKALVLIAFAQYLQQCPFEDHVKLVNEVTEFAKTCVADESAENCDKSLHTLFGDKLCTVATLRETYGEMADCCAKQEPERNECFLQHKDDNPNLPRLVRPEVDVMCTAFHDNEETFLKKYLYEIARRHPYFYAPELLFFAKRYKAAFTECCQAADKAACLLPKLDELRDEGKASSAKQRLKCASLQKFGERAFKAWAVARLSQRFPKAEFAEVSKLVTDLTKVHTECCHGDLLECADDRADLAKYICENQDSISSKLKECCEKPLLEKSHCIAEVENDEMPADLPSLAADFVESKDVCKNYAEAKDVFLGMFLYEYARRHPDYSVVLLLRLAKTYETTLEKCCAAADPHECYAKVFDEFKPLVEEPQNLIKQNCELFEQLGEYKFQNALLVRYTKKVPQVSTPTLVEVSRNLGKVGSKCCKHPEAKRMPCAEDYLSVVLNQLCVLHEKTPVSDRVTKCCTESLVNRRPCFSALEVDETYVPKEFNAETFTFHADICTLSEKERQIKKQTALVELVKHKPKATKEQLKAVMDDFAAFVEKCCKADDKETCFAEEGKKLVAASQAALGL
T1 sequence (P02768 25-609): as above

As to `Cc1cc(C)c(C(=O)NCC(=O)NCc2ccc(Cl)cc2)c(S)n1` [Compound 3c, N-{2-[(4-chlorobenzyl)amino]-2-oxoethyl}-4,6-dimethyl-2-sulfanylpyridine-3-carboxamide], the “Marker Displacement Percentage HSA/Dansyl-L-Gly” value at HSA/Dansyl-L-Gly is “no quenching occurs at all”; at HSA/Dansyl-L-Phe, 18.5%. Also, the “toxicity toward healthy NHDF cells” value in the series on NHDF cells is “highest toxicity toward healthy NHDF”.

Regarding `Cc1cc(C)c(C(=O)NCC(=O)NCc2ccc(Oc3ccccc3)cc2)c(S)n1` [Compound 3b, 4,6-dimethyl-N-{2-[(4-phenoxybenzyl)amino]-2-oxoethyl}-2-sulfanylpyridine-3-carboxamide], on HSA/Dansyl-L-Phe, the “Marker Displacement Percentage HSA/Dansyl-L-Gly” value amounted to 35.2%. In addition, in the series with NHDF cells, the “toxicity toward healthy NHDF cells” value was “lowest toxicity toward healthy cells”.

For the compound `Cc1cc(C)c(C(=O)NCC(=O)NCc2ccccc2Cl)c(S)n1` [Compound 3d, N-{2-[(2-chlorobenzyl)amino]-2-oxoethyl}-4,6-dimethyl-2-sulfanylpyridine-3-carboxamide], the “Marker Displacement Percentage HSA/Dansyl-L-Gly” value was “no quenching occurs at all” on HSA/Dansyl-L-Gly and 10.6% on HSA/Dansyl-L-Phe. For the same compound, the “toxicity toward healthy NHDF cells” value in the series on NHDF cells is reported as “highest toxicity toward healthy NHDF”.

With `Cc1cc(C)c(C(=O)NCC(=O)NCc2ccccc2)c(S)n1` [Compound 3g, 4,6-dimethyl-N-[2-(benzylamino)-2-oxoethyl]-2-sulfanylpyridine-3-carboxamide], the “Marker Displacement Percentage HSA/Dansyl-L-Gly” value was “no quenching occurs at all” on HSA/Dansyl-L-Gly and 11.1% at HSA/Dansyl-L-Phe.
